ChEMBL document CHEMBL3585268, “Treatment of Cancer with NAMPT Inhibitors” (2015)

How the values were obtained:
Assay type in all cases: functional
Mus musculus [1] = assay: In vivo inhibition of NAMPT in human NCI-H1155 cells xenografted in Harlan nude mouse assessed as NAD+ level per mg of tissue at 5 mg/kg, po bid measured 7 hrs post second dose by LC-MS analysis (reference value: 20.08 to 57.97 pmol)
Mus musculus [2] = assay: In vivo inhibition of NAMPT in human A2780 cells xenografted in Harlan nude mouse assessed as NAD+ level per mg of tissue at 10 mg/kg, po bid measured 7 hrs post second dose by LC-MS analysis (reference value: 55.03 to 56.3 pmol)
Mus musculus [3] = assay: In vivo inhibition of NAMPT in human A2780 cells xenografted in Harlan nude mouse assessed as NAD+ level per mg of tissue at 20 mg/kg, po bid measured 7 hrs post second dose by LC-MS analysis (reference value: 55.03 to 56.3 pmol)
Mus musculus [4] = assay: In vivo inhibition of NAMPT in human NCI-H1155 cells xenografted in Harlan nude mouse assessed as NAD+ level per mg of tissue at 10 mg/kg, po bid measured 7 hrs post second dose by LC-MS analysis (reference value: 20.08 to 57.97 pmol)
Mus musculus [5] = assay: In vivo inhibition of NAMPT in human A2780 cells xenografted in Harlan nude mouse assessed as NAD+ level per mg of tissue at 5 mg/kg, po bid measured 7 hrs post second dose by LC-MS analysis (reference value: 55.03 to 56.3 pmol)
Mus musculus [6] = assay: In vivo inhibition of NAMPT in human NCI-H1155 cells xenografted in Harlan nude mouse assessed as NAD+ level per mg of tissue at 20 mg/kg, po bid measured 7 hrs post second dose by LC-MS analysis (reference value: 20.08 to 57.97 pmol)
Mus musculus [7] = assay: In vivo inhibition of NAMPT in human NCI-H1155 cells xenografted in Harlan nude mouse assessed as NAD+ level per mg of tissue at 8 mg/kg, po bid measured 7 hrs post second dose by LC-MS analysis (reference value: 20.08 to 57.97 pmol)
Mus musculus [8] = assay: In vivo inhibition of NAMPT in human A2780 cells xenografted in Harlan nude mouse assessed as NAD+ level per mg of tissue at 8 mg/kg, po bid measured 7 hrs post second dose by LC-MS analysis (reference value: 55.03 to 56.3 pmol)
Mus musculus [9] = assay: In vivo inhibition of NAMPT in human NCI-H1155 cells xenografted in Harlan nude mouse assessed as NAD+ level per mg of tissue at 16 mg/kg, po bid measured 7 hrs post second dose by LC-MS analysis (reference value: 20.08 to 57.97 pmol)
Mus musculus [10] = assay: In vivo inhibition of NAMPT in human A2780 cells xenografted in Harlan nude mouse assessed as NAD+ level per mg of tissue at 32 mg/kg, po bid measured 7 hrs post second dose by LC-MS analysis (reference value: 55.03 to 56.3 pmol)
Mus musculus [11] = assay: In vivo inhibition of NAMPT in human A2780 cells xenografted in Harlan nude mouse assessed as NAD+ level per mg of tissue at 16 mg/kg, po bid measured 7 hrs post second dose by LC-MS analysis (reference value: 55.03 to 56.3 pmol)
Mus musculus [12] = assay: In vivo inhibition of NAMPT in human NCI-H1155 cells xenografted in Harlan nude mouse assessed as NAD+ level per mg of tissue at 32 mg/kg, po bid measured 7 hrs post second dose by LC-MS analysis (reference value: 20.08 to 57.97 pmol)

Row | SMILES | Activity (Mus musculus [1]) [pmol] | Activity (Mus musculus [2]) [pmol] | Activity (Mus musculus [3]) [pmol] | Activity (Mus musculus [4]) [pmol] | Activity (Mus musculus [5]) [pmol] | Activity (Mus musculus [6]) [pmol] | Activity (Mus musculus [7]) [pmol] | Activity (Mus musculus [8]) [pmol] | Activity (Mus musculus [9]) [pmol] | Activity (Mus musculus [10]) [pmol] | Activity (Mus musculus [11]) [pmol] | Activity (Mus musculus [12]) [pmol]
1 | CC(C)(O)CS(=O)(=O)Nc1ccc2c(c1)CCN(C(=O)COc1cccnc1)C2 | 7.48 | 2.55 | 3.29 | 3.63 | 5.04 | 1.82 |  |  |  |  |  | 
2 | COCCS(=O)(=O)Nc1ccc2c(c1)CCN(C(=O)COc1cccnc1)C2 |  |  |  |  |  |  | 5.19 | 3.97 | 1.98 | 6.38 | 6.52 | 0.84
